Tests used:
[1] = target: T1, human wild-type P-gp (ABCB1 1236C-2677G-3435C) (Homo sapiens, UniProt P08183, S893A)
Experimental: (§1) For efflux assays, 1×10^5 cells were seeded on 96-well plates and cultured for 24 hours. […] After washed with warm PBS, cells were allowed to efflux rhodamine123 for 10 min at 37°C in the incubator. Samples (150 µl) were collected and transferred to 96-well black plates. Rhodamine123 concentrations were measured using a set of standards (from 62.5 nM to 8 µM) in HBSS analyzed by the SpectraMax Gemini XS microplate spectrofluorometer (Molecular Devices Co., Sunnyvale, CA, USA) with the excitation set at 485 nm and the emission set at 535 nm. The measured rhodamine123 concentrations were normalized to the total protein content in the cells. Total protein concentrations were measured by a microplate assay protocol (Dc protein assay reagent, Bio-Rad, Hercules, CA, USA), and bovine serum albumin was used as the standard. Each experiment was repeated at least three times across cell passages to ensure stability of transfection and consistency and reproducibility of the experiments.
(§2) For kinetic studies, kinetic parameters were estimated by nonlinear regression using Scientist v2.01 (MicroMath Scientific Software, Salt Lake City, UT, U.S.A.) according to the following equation: [drawing 6] Where V denoted the efflux rate; Vmax, the maximal efflux rate; Km, the Michaelis-Menten constant and C is the substrate concentration.

[2] = target: T2, human P-gp with 1236T-2677T-3435T genotype (Homo sapiens, UniProt P08183)
Experimental: as §1, §2

[3] = target: T3, human P-gp with 1236T-2677A-3435T genotype (Homo sapiens, UniProt P08183, S893T)
Experimental: as §1, §2

[4] = target: T1, human wild-type P-gp (ABCB1 1236C-2677G-3435C); test: in vitro
Experimental: as §1, §2

[5] = target: T2, human P-gp with 1236T-2677T-3435T genotype; test: in vitro
Experimental: as §1, §2

[6] = target: T3, human P-gp with 1236T-2677A-3435T genotype; test: in vitro
Experimental: as §1, §2

[7] = system: Flp-In™-293 cells; test: Cytotoxicity assay (MTT); format: cell-based, human; details: methadone 0.5 to 40 µM; 48 hours
Experimental: Briefly, the cells were seeded into 24-well plates and cultured overnight. […] After incubation, the medium was removed and added fresh culture medium 200 µl containing 0.5 mg/ml MTT and then incubated at 37°C for 4 hours. After incubation, the medium was removed and 200 µl DMSO was added, and incubation for 30 minutes at room temperature. After incubation, 100 µl of solution was transferred to a 96-well plate and absorbance was measured using an ELISA plate reader (Molecular Devices, Sunnyvale, USA) at 570 nm with a reference wavelength of 650 nm.

[8] = target: T1, human wild-type P-gp (ABCB1 1236C-2677G-3435C); test: cell-based
Experimental: as §1, §2

[9] = target: T2, human P-gp with 1236T-2677T-3435T genotype; test: cell-based
Experimental: as §1, §2

[10] = target: T3, human P-gp with 1236T-2677A-3435T genotype; test: cell-based
Experimental: as §1, §2

[11] = cited from earlier work

T1 sequence (P08183 whole entry S893A): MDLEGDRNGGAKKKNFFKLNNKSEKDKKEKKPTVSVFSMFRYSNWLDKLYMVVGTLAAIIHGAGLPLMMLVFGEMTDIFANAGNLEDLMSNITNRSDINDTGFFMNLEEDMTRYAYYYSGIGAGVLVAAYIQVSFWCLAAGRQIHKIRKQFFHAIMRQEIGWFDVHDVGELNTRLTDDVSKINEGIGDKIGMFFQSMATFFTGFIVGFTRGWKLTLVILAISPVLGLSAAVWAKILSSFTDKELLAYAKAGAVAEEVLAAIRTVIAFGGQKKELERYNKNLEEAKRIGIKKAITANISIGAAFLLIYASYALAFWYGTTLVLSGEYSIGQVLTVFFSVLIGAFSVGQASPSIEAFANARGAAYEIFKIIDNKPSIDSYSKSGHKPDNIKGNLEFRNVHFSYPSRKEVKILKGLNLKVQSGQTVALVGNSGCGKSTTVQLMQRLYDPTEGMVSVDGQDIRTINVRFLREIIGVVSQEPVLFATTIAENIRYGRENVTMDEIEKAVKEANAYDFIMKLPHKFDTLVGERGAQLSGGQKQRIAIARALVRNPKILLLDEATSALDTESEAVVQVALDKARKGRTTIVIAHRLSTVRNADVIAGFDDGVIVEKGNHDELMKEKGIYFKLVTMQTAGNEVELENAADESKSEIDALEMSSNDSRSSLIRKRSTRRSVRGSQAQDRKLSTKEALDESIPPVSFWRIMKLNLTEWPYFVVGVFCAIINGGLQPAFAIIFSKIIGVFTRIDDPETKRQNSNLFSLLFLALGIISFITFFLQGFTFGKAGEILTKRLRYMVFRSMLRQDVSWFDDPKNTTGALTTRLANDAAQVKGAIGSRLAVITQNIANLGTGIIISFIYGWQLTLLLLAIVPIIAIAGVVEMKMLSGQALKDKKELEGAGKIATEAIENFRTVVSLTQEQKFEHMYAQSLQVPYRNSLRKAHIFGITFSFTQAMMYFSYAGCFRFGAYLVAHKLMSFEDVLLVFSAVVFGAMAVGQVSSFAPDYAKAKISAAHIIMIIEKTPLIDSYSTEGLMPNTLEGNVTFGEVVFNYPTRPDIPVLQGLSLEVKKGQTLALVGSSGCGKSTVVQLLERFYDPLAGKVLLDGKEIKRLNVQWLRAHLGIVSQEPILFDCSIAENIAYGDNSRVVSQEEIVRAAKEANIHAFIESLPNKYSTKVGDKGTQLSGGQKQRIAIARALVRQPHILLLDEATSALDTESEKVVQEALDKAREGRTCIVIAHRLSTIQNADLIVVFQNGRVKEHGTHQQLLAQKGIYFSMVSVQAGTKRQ
T3 sequence (P08183 whole entry S893T): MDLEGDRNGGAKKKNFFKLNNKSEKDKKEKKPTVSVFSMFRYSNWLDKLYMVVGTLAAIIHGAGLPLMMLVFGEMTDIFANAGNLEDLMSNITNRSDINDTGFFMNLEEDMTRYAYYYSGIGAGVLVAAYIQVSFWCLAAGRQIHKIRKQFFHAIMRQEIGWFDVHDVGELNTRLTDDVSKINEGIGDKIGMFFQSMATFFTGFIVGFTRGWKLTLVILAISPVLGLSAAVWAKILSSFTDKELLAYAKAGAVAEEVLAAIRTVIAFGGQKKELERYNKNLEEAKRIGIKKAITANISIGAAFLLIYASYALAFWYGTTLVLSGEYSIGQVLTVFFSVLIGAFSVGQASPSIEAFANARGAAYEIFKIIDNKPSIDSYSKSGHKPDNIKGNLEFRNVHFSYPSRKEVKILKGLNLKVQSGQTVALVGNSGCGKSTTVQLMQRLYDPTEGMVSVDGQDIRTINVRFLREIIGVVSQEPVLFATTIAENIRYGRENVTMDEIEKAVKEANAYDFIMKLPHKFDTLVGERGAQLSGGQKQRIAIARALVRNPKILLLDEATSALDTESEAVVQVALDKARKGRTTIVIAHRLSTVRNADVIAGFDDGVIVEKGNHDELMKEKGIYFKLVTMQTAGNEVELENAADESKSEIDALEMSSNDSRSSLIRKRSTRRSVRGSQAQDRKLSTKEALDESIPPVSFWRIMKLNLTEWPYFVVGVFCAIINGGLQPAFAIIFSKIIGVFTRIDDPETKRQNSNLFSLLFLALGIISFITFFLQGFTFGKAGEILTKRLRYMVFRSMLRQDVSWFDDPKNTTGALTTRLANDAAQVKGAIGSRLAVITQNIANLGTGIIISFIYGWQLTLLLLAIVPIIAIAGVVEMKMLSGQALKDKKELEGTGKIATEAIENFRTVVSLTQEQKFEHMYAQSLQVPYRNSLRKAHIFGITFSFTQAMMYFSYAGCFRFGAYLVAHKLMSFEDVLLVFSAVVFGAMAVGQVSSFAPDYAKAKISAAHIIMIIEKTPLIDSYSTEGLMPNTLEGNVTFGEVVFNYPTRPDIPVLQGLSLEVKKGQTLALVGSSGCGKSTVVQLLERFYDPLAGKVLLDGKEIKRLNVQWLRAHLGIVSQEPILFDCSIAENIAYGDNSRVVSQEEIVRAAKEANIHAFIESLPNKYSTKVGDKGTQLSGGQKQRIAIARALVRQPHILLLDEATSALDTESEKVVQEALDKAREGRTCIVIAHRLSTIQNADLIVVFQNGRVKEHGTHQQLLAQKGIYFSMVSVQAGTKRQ
T2 sequence (P08183 whole entry): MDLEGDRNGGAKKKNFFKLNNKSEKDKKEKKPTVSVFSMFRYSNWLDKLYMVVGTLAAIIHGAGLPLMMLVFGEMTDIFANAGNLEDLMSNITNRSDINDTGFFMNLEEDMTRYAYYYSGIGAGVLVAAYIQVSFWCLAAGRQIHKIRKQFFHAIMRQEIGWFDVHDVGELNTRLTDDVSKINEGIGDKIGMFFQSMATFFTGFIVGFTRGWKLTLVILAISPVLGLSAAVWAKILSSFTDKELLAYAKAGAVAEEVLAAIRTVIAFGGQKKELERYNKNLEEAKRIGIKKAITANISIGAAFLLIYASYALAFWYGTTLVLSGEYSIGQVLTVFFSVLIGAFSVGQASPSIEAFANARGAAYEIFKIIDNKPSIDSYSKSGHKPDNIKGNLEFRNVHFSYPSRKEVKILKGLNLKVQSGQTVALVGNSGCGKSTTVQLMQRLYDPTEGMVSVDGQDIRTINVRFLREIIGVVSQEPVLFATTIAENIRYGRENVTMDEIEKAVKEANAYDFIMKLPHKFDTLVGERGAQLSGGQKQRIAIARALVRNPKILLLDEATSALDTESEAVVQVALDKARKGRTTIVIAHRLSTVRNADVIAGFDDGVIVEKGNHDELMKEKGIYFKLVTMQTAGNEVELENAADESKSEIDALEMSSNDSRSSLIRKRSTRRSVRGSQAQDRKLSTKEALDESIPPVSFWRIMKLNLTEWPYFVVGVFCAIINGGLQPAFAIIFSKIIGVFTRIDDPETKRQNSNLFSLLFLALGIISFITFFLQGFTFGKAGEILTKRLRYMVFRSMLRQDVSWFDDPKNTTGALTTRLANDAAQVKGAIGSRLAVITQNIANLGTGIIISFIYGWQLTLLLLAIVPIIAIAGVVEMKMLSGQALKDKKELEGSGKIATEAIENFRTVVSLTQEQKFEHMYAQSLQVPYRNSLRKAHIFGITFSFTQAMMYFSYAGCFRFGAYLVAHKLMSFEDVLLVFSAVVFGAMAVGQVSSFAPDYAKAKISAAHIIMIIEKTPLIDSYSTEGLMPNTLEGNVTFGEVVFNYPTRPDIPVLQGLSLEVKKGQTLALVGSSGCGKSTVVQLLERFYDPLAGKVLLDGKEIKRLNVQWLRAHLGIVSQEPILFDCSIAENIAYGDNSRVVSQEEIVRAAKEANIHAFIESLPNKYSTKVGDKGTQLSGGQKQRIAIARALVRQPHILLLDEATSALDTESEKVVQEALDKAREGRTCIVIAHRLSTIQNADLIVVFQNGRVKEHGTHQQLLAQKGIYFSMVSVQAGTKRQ

| Compound | non-specific first-order rate constant of rhodamine 123 efflux [1] | non-specific transport as share of the total efflux [1] | Vmax of rhodamine 123 efflux [2] | Vmax of rhodamine 123 efflux [3] | Km at 10 min [4] | Km at 10 min [5] | Km at 10 min [6] | cell viability (MTT assay) [7] | IC50 [8] | Ki [8] | IC50 [9] | Ki [9] | IC50 [10] | Ki [10] | therapeutic range [11] |
| --- | --- | --- | --- | --- | --- | --- | --- | --- | --- | --- | --- | --- | --- | --- | --- |
| COC(=O)c1ccccc1-c1c2ccc(=N)cc-2oc2cc(N)ccc12 [Rhodamine 123] | 12.08±1.23 µL/mg protein/10 min | 2.9% | 8.29±0.89 nmole/mg protein/10 min | 7.34±0.63 nmole/mg protein/10 min | 16.6 ± 3.01 µM | 18.8 ± 2 µM | 14.8 ± 1.72 µM |  |  |  |  |  |  |  |  |
| CCC(=O)C(CC(C)N(C)C)(c1ccccc1)c1ccccc1 (stereo not drawn) [methadone] |  |  |  |  |  |  |  | did not affect | 2.17 ± 0.1 µM | 2.77 ± 0.15 µM | 2.97 ± 0.09 µM | 3.92 ± 0.07 µM | 4.43 ± 1.1 µM | 4.53 ± 1.17 µM | 1 to 3 µM |

Reference: publication PMC3602015 (PLoS ONE, 2013)
